Here are results for one compound from patent US7465558B2, “Perfusion system and apparatus for automated multi-channel patch-clamp recordings utilizing inside-out whole-cell configuration” (Wyeth, priority 2004, dated 2008).

Entries after “also recorded” stand apart in the source; their conditions may differ.

The subject of the assay is outward potassium currents. The assay is described as follows: inside-out whole-cell patch clamp recording of outward potassium currents. Type of assay: cell-based. On the procedure:
These currents were elicited by a test voltage of+40 mV preceded by a 500 ms long prepulse to−110 mV from a holding potential of−70 mV. […] Current traces were obtained in 5 minute time intervals.
FIG. 14 illustrates a graph showing outward potassium currents with test compounds according to an embodiment of the invention. […] Each test increment followed a 0.5 second long hyperpolarizing prepulse to−110 mV, while keeping the membrane potential at−70 mV between pulses. In the first (left-most) plot, measurements of current were taken while the cell was bathed in a control solution. The cell was then placed in a 10 mM 4-AP bath solution, and the measurements of the second (middle) plot were recorded. The chemical called 4-AP is a pharmacological blocker of these ion channels. The cell was then washed of the 4-AP solution, and the cell was again bathed in the control solution. Measurements were recorded as in the first and second plots, and the results are shown in the third (right-most) plot. For purposes of an inside-out whole cell patch clamp measurement, the control and 4-AP baths represented the intracellular region.
FIG. 15 illustrates a graph showing potassium current amplitude (I) behavior as a function of applied membrane voltages (V) according to an embodiment of the invention. […] Here, the black square points correspond to the left-most plot in FIG. 14, the black circles correspond to the center plot of FIG. 14 showing the reduced potassium current in the presence of 10 mM 4-AP bath solution, and the white circles correspond to measurements after the 4-AP was washed away in the right-most plot of FIG. 14.
This current is approximately 50% lower than in the left and right plots, which correspond to measurements in the control solution before and after drug action, respectively.
On the technique in general: In patch-clamp work, channel activity is measured electrically.

With `Nc1ccncc1` [4-AP], the “block of potassium current amplitude” value (10 mM 4-AP bath solution representing the intracellular region, first cell, FIG. 14) is on record as “about 50%”. Besides, the “current across the membrane relative to current in control solution” value (10 mM 4-AP bath solution, first cell, current amplitude versus membrane voltage, FIG. 15) is “less than 50%”. In addition, the “reversibility of the effect with wash-out perfusion” value (first cell, after washing and return to control solution, FIG. 14/15) was “fully (or at least substantially) reversible; also recorded: reversible process”. Moreover, where the note is “second cell, in the presence of 4-AP, FIG. 16”, the “current lower than in control solution before and after drug action” value is “approximately 50%”. For the same compound, the “current amplitude after washing compared with control substance” value (second cell, wash-out, FIG. 17) is listed as “nearly equal”.
